# Counter-ions that a name gives are not always drawn. Like-named read-outs stand apart in the source and are kept apart here.
# Legend:
# Format in all cases: cell-based, human
# [1] = tested on: Flo-1 cells; assay: Epigenetic compound library screen (CellTiter-Glo, 72 h); conditions: Flo-1, 6μM; for cytotoxicity at 6 µM: Homo sapiens, read-out: % cell killing /control
# Procedure: (§1) We tested a 163 compound epigenetic library that consists of inhibitors and activators of epigenetic modifying enzymes (writers, erasers and readers). All compounds were dissolved in 100% DMSO and tested in duplicate at a nominal test concentration of 6μM. Wells with assay buffer containing DMSO served as negative controls. 1000 exponentially growing cells were seeded per well in 384-well micro-titer plates and incubated in the presence of compounds in a humidified environment at 37°C and 5% CO2. After 72 hours of treatment, cell viability was assessed by measuring ATP levels via bioluminescence (CellTiter-Glo, Promega). […] Curve fitting and statistical analyses are performed in GraphPad prism.
# [2] = tested on: Flo-1 cells; assay: FDA library drug sensitivity testing (CellTiter-Glo, 72 h)
# Source text: (§2) OE33, OE19 and SKGT2 human esophageal adenocarcinoma cell lines were obtained from the European Collection of Cell Culture ([…]). Flo1, EAC42 and EAC47 cells were established in the Capobianco Laboratory. EAC42 and EAC47 human esophageal adenocarcinoma cell lines are derived from patients undergoing surgery at the Miller School of Medicine, University of Miami. The Capobianco laboratory obtained written informed consent from all patients and approval from the Institutional Research Ethics Committee.
# (§3) Drug sensitivity testing (DST) was performed as described previously. […] Individual drugs were dissolved in 100% DMSO and tested in duplicates starting at a maximal test concentration of 10μM then over a 20,000-fold concentration range to generate dose response curves. Wells with assay buffer containing DMSO served as negative controls. 1000 exponentially growing cells were seeded per well in 384-well micro-titer plates and incubated in the presence of compounds in a humidified environment at 37°C and 5% CO2. After 72 hours of treatment, cell viability was assessed by measuring ATP levels via bioluminescence (CellTiter-Glo, Promega) according to manufactures recommendations. Interpretation of curve parameters was performed according to the modified drug sensitivity scoring (DSSmod) function developed by Swords et al. As a final step, the selective DSSmod (sDSSmod) for each drug in each patient screen is calculated according to the formula sDSSmod = DSSmod (patient cells)—DSSmod (normal cells). Given in this way, the sDSSmod incorporated information on each drug’s potency, efficacy, effect range and therapeutic index, making it possible to prioritize compounds over multiple parameters using a single numerical metric. In addition, this methodology allows us to rank compounds by cancer-selective efficacy for each individual patient. […] All calculations and scoring routines are implemented in MatLab and additional curve fitting and statistical analyses are performed in GraphPad prism.
# [3] = tested on: OE33 cells; assay: as above
# Source text: as §2
# as §3, with “As a final step, the selective DSSmod (sDSSmod) for each drug in each patient screen is calculated according to the formula sDSSmod = DSSmod (patient cells)—DSSmod (normal cells).” left out, “metric.” for “metric. In addition, this methodology allows us to rank compounds by cancer-selective efficacy for each individual patient.”
# [4] = tested on: OE19 cells; assay: as above; conditions: sDSSmod = DSSmod (patient cells) - DSSmod (normal cells)
# Source text: as §2
# as §3, with “As a final step, the selective DSSmod (sDSSmod) for each drug in each patient screen is calculated according to the formula sDSSmod = DSSmod (patient cells)—DSSmod (normal cells).” left out, “metric.” for “metric. In addition, this methodology allows us to rank compounds by cancer-selective efficacy for each individual patient.”
# [5] = tested on: EAC42 cells; assay: as above
# Source text: as §2
# as §3, with “As a final step, the selective DSSmod (sDSSmod) for each drug in each patient screen is calculated according to the formula sDSSmod = DSSmod (patient cells)—DSSmod (normal cells).” left out, “metric.” for “metric. In addition, this methodology allows us to rank compounds by cancer-selective efficacy for each individual patient.”
# [6] = tested on: EAC47 cells; assay: as above
# Source text: as §2
# as §3, with “As a final step, the selective DSSmod (sDSSmod) for each drug in each patient screen is calculated according to the formula sDSSmod = DSSmod (patient cells)—DSSmod (normal cells).” left out, “metric.” for “metric. In addition, this methodology allows us to rank compounds by cancer-selective efficacy for each individual patient.”
# [7] = tested on: SK-GT2 cells; assay: as above
# Source text: as §2
# as §3, with “As a final step, the selective DSSmod (sDSSmod) for each drug in each patient screen is calculated according to the formula sDSSmod = DSSmod (patient cells)—DSSmod (normal cells).” left out, “metric.” for “metric. In addition, this methodology allows us to rank compounds by cancer-selective efficacy for each individual patient.”
# [8] = tested on: normal esophageal epithelium cell line EACN42; assay: FDA library drug sensitivity testing (CellTiter-Glo, 72 h), normal control cells; parameters: key to DSS: modified drug sensitivity score (DSSmod) from dose-response curve fit; conditions: 72 h, EACN42 normal esophageal cells; for EC50: cell viability (ATP), max test concentration 10μM; for DSS: drug sensitivity score
# Outline: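 HPV E6-E7-immortalized normal human esophageal epithelial cells, 1000 per well, exposed 72 h at 37 °C to drugs in duplicate from 10μM top concentration across a 20,000-fold range. Viability by ATP bioluminescence; DMSO wells as negative control; curves scored with modified drug sensitivity score (DSSmod).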
# [9] = tested on: OE33 cells; assay: Epigenetic compound library screen (CellTiter-Glo, 72 h); conditions: OE33, 6μM; for cytotoxicity at 6 µM: Homo sapiens, read-out: % cell killing /control
# Procedure: as §1
# [10] = Flo-1, sDSSmod = DSSmod (patient cells) - DSSmod (normal cells)
# [11] = OE33, sDSSmod = DSSmod (patient cells) - DSSmod (normal cells)
# [12] = EAC42, sDSSmod = DSSmod (patient cells) - DSSmod (normal cells)
# [13] = EAC47, sDSSmod = DSSmod (patient cells) - DSSmod (normal cells)
# [14] = SK-GT2, sDSSmod = DSSmod (patient cells) - DSSmod (normal cells)
Molecule,"sDSSmod [2, 10]","sDSSmod [3, 11]",sDSSmod [4],"sDSSmod [5, 12]","sDSSmod [6, 13]","sDSSmod [7, 14]",EC50 ([8]; Homo sapiens),DSS [8],other results
Nc1ncnc2c1c(I)cn2[C@@H]1O[C@H](CO)[C@@H](O)[C@H]1O [5-Iodotubercidin],–,–,–,–,–,–,–,–,% cell killing /control [1]: 50.40%
O=C(/C=C/c1cccc(S(=O)(=O)Nc2ccccc2)c1)NO [Belinostat],-19,-19.002,-19.002,10.9,6.846,-19.002,1080 nM,19,–
CC(C)C[C@H](NC(=O)[C@H](Cc1ccccc1)NC(=O)c1cnccn1)B(O)O [Bortezomib],-35.57,-35.5757,-35.5757,-21.0264,-23.5292,-35.5649,200 nM,35.58,–
CC[C@@]1(O)C(=O)OCc2c1cc1n(c2=O)Cc2cc3ccccc3nc2-1 [Camptothecin],-20.76,–,-34.9341,-13.5945,-15.9763,-11.3049,20 nM,52.69,–
"CC(C)C[C@H](NC(=O)[C@H](CCc1ccccc1)NC(=O)CN1CCOCC1)C(=O)N[C@@H](Cc1ccccc1)C(=O)N[C@@H](CC(C)C)C(=O)[C@@]1(C)CO1 [Cartilzomib, Carfilzomib]",-44.35,-43.92,-42.8127,–,–,-44.432,80 nM,44.43,–
Cc1nc(Nc2ncc(C(=O)Nc3c(C)cccc3Cl)s2)cc(N2CCN(CCO)CC2)n1 [Dasatinib],-12.8,-12.8072,-12.8072,-9.752,-10.2728,-12.8072,80 nM,12.81,–
COc1cccc2c1C(=O)c1c(O)c3c(c(O)c1C2=O)C[C@@](O)(C(=O)CO)C[C@@H]3O[C@H]1C[C@H](N)[C@H](O)[C@H](C)O1 [Doxorubicin],7.66,–,-12.9053,–,–,-8.365,1420 nM,15.67,–
Nc1nc(F)nc2c1ncn2[C@@H]1O[C@H](COP(=O)(O)O)[C@@H](O)[C@@H]1O [Fludara],-5.23,-12.9868,-23.9486,-46.3431,-46.3431,-12.9068,50 nM,46.34,–
CC(C)n1c(/C=C/C(O)CC(O)CC(=O)O)c(-c2ccc(F)cc2)c2ccccc21 (stereo not shown) [Fluvastatin sodium],-9.71,-10.5948,-16.7184,-14.3727,-15.1417,-17.1525,1060 nM,17.36,–
CN(C)c1ccc(C(=O)NCCCCCCC(=O)NO)cc1 [M-344],–,–,–,–,–,–,–,–,% cell killing /control [9]: 68.75%; % cell killing /control [1]: 56.82%
O=Nc1ccc(O)c2ncccc12 [NSC-3852],–,–,–,–,–,–,–,–,% cell killing /control [9]: 42.71%
Cc1cn(-c2cc(NC(=O)c3ccc(C)c(Nc4nccc(-c5cccnc5)n4)c3)cc(C(F)(F)F)c2)cn1 [Nilotinib],37.8,32.09,18.74,–,–,27.22,> 10000 nM,0.43,–
"CN(C)Cc1c(C(=O)NCCOc2ccc(C(=O)NO)cc2)oc2ccccc12 [PCI-24781 (Abexinostat), Abexinostat]",–,–,–,–,–,–,–,–,cytotoxicity at 6 µM [9]: 46%
O=C(/C=C/c1cccc(S(=O)(=O)Nc2ccccc2)c1)NO [PXD101],–,–,–,–,–,–,–,–,cytotoxicity at 6 µM [9]: 92.3%; cytotoxicity at 6 µM [1]: 77.6%
Cc1[nH]c2ccccc2c1CCNCc1ccc(/C=C/C(=O)NO)cc1 [Panobinostat],-40.42,-40.4215,-40.4215,7.607,–,-40.4215,90 nM,40.42,–
CO[C@H]1C[C@@H]2CC[C@@H](C)[C@@](O)(O2)C(=O)C(=O)N2CCCC[C@H]2C(=O)O[C@H]([C@H](C)C[C@@H]2CC[C@@H](O)[C@H](OC)C2)CC(=O)[C@H](C)/C=C(\C)[C@@H](O)[C@@H](OC)C(=O)[C@H](C)C[C@H](C)/C=C/C=C/C=C/1C [Rapamycin],-10.72,-11.012,-11.012,-6.15,-8.931,-11.012,3000 nM,11.01,–
O=C(CCCCCCC(=O)Nc1ccccc1)NO [SAHA],–,–,–,–,–,–,–,–,% cell killing /control [1]: 46.32%
CCCCc1nc2cc(/C=C/C(=O)NO)ccc2n1CCN(CC)CC [SB 939],–,–,–,–,–,–,–,–,cytotoxicity at 6 µM [9]: 98.9%; cytotoxicity at 6 µM [1]: 78.8%
O=C(CCCCCN1C(=O)c2cccc3cccc(c23)C1=O)NO [Scriptaid],–,–,–,–,–,–,–,–,cytotoxicity at 6 µM [1]: 32.5%
[Na+].[Na+].[Na+].[O]=[V]([O-])([O-])[O-] [Sodium orthovanadate],13.33,–,5.913,–,–,23.66,–,0,–
CO[C@H]1C[C@@H]2CC[C@@H](C)[C@@](O)(O2)C(=O)C(=O)N2CCCC[C@H]2C(=O)O[C@H]([C@H](C)C[C@@H]2CC[C@@H](OC(=O)C(C)(CO)CO)[C@H](OC)C2)CC(=O)[C@H](C)/C=C(\C)[C@@H](O)[C@@H](OC)C(=O)[C@H](C)C[C@H](C)/C=C/C=C/C=C/1C [Temsirolimus],-11.93,-11.9329,-11.9329,-5.1083,-9.994,-11.9329,> 10000 nM,11.93,–
CC[C@@]1(O)C(=O)OCc2c1cc1n(c2=O)Cc2cc3c(CN(C)C)c(O)ccc3nc2-1 [Topotecan HCl],-20.26,–,-36.6414,-9.367,-11.6273,-13.0332,60 nM,43.21,–
O=C(CCCCCCC(=O)Nc1ccccc1)NO [Vorinostat],9.58,15.71,9.843,7.485,5.288,–,–,5.09,–
CC1(C)CCC2=C(O1)c1ccccc1C(=O)C2=O [β-Lapachone],–,–,–,–,–,–,–,–,cytotoxicity at 6 µM [1]: 40.9%
Bleomycin sulfate,–,–,-18.9933,–,–,–,–,30.58,sDSSmod [2]: -18.12; sDSSmod [3]: -15.1946; sDSSmod [5]: -29.1318; sDSSmod [6]: -29.4923; sDSSmod [7]: -29.9671; EC50 [8]: 370 nM
